From publication PMC5608031 (Hormone molecular biology and clinical investigation, 2017)

Molecular target: human cytosolic sulfotransferase 1C4 (hSULT1C4) (Homo sapiens, UniProt O75897)
Assay: biochemical
Assay type: binding

Chain of human cytosolic sulfotransferase 1C4 (hSULT1C4) (O75897 whole entry): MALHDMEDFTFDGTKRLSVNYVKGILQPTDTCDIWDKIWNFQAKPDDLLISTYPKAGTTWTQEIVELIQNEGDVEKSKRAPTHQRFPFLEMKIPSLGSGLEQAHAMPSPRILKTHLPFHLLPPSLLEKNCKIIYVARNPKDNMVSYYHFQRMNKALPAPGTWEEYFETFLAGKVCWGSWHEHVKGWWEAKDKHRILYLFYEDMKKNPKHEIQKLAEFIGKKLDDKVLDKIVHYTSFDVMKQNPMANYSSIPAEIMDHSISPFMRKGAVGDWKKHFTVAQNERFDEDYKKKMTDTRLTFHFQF

For `Nc1ncnc2c1ncn2[C@@H]1O[C@H](COP(=O)(O)O)[C@@H](OP(=O)(O)O)[C@H]1O` [PAP], the Kd was 2800 ± 200 nM.
